Results on seven compounds are retold here after patent publication US5599663A, “Angiotensin IV and analogs as regulators of fibrinolysis” (Brighan & Women's Hospital, priority 1993, dated 1997).

Series [1] concerns bovine aortic endothelial cells receptor for Ang II. Put plainly: Binding of ^125 I-Ang II to cultured bovine aortic endothelial cells. An excerpt:
We first studied the role of angiotensin (Ang) II in the regulation of endothelial fibrinolysis, by determining if Ang II binds to the target cell, which in this case was bovine aortic endothelial cells. In these experiments, we used early passage bovine aortic endothelial cells (P2-4) grown to confluence in DMEM supplemented with penicillin, streptomycin, and 10% newborn calf serum.
To test whether the Ang II receptor on the bovine aortic endothelial cells is similar or identical to the classic AT1 receptor, we measured the potency of the antagonist saralasin for binding.

For series [2], the system named is PAI-1. Put plainly: PAI-1 secretion into conditioned media of bovine aortic endothelial cells (ELISA; activity). In kind it is cell-based. The method, then:
FIG. 6 is a dose response curve of PAI-1 secretion into the conditioned media of bovine aortic endothelial cells following exposure to Ang II.
In these experiments, we investigated the effects of Ang II on the secretion of PAI-1 into the media of cultured endothelial cells. […] Ang II (in the concentrations indicated) was added to washed, confluent cultures of bovine aortic endothelial cells, and the conditioned media was removed for assay after 18 hour. Levels of PAI-1 antigen in the media were determined using a specific ELISA for PAI-1, such as the assay described in DeClerk et al., Blood (1988) 71:220-225, or the assay sold by Biopool, AB, Umea, Sweden.
(§1) The increases in PAI-1 activity and antigen observed thus far have been associated with an approximate 4-fold increase in PAI-1 message (FIGS. 7 and 8). The cells for these experiments were incubated for 8 hour in fresh serum-free media containing the indicated concentrations of Ang II. Total RNA was extracted and analyzed by Northern blotting.

In a further series the test system is PAI-1 mRNA. In words: PAI-1 mRNA induction in bovine aortic endothelial cells (Northern / slot blot). In kind it is cell-based. The conditions noted are these: for effect on Ang II stimulation of PAI-1 mRNA levels: antagonist 1 μM. The method, then:
FIG. 7 is a Northern blot showing the induction of PAI-1 RNA after treatment of bovine aortic endothelial cells with angiotensin II.
FIG. 8 is a graph showing the dose response of PAI-1 RNA induction by Ang II.
FIG. 9 is a Northern blot showing the time course of induction of PAI-1 RNA after treatment of bovine aortic endothelial cells with 20 nM angiotensin II.
FIG. 10 is a graph showing the PAI-1 mRNA levels as a function of time, in bovine aortic endothelial cells treated with 20 nM angiotensin II.
as §1
Ang II is also associated with a time-dependent increase in PAI-1 mRNA that peaks 6-8 hrs after exposure to Ang II, as assessed by Northern blot analysis (FIG. 9). Confluent cultures of bovine aortic endothelial cells were incubated with 20 nM Ang II in serum-free DMEM. Total cytoplasmic RNA was extracted at the indicated times and analyzed by Northern blotting (FIG. 9). The results corresponding to the 3.3-kb PAI-1 mRNA species were quantified by transmission densitometry. To control for variability in gel loading, the blots were stripped and rehybridized with a cDNA probe for β-actin. Normalized data are plotted in the FIG. 10.

For series [3], the system named is t-PA. Put plainly: t-PA antigen or activity in conditioned media of bovine aortic endothelial cells. In kind it is cell-based.
The test system of series [4] is PAI-1. Put plainly: Plasma PAI-1 during Ang II infusion in human volunteers. The class given is in vivo. As for the experimental part:
(§2) Second, this binding appears to have a functional effect on bovine aortic endothelial cells in inducing the synthesis of PAI-1 message and the secretion of PAI-1 into the conditioned media. Importantly, we have observed increased levels of PAI-1 mRNA induced by physiologically relevant doses of Ang II (i.e. 0.1 nM). The potential significance of these in vitro findings are supported by recent data obtained during the infusion of Ang II into healthy human volunteers. In these studies, normotensive volunteers (N=4) received an infusion of Ang II in graded doses of 1.0, 3.0. and 10.0 ng/kg/min., while 4 additional normotensive volunteers received an infusion of D5W. Plasma levels of t-PA and PAI-1 were measured prior to and at the conclusion of each dose. […] Similar findings have been obtained in an additional group of hypertensive volunteers (N=6) that received a constant infusion of Ang II (3 ng/kg/min) over a 45 min period. In these individuals, we observed a 60% increase in plasma PAI-1 compared with pretreatment levels (p<0.04).

The test system of series [5] is t-PA. In words: Plasma t-PA during Ang II infusion in human volunteers. The class given is in vivo. As for the experimental part:
as §2

Series [6] can be described thus: Mean blood pressure during graded infusions in rabbits. In kind it is in vivo, New Zealand White rabbits. The conditions noted are these: for effect on mean blood pressure: graded infusions, healthy rabbits. An excerpt:
FIG. 11 is a graph of the mean BP at baseline and after increasing doses of Ang II alone, Ang IV alone, saline, and Ang II in rabbits pretreated with amastatin. Error bars represent SEM.
(§3) We have also undertaken a series of experiments designed to identify the specific form of angiotensin that is responsible for the increased plasma PAI-1 levels seen in our human studies. We examined the effects of graded infusions of Ang II and Ang IV on blood pressure and plasma PAI activity in healthy New Zealand White rabbits.

In series [7] the test system is PAI-1. In words: Plasma PAI-1 during graded infusions in rabbits. In kind it is in vivo, New Zealand White rabbits. The conditions noted are these: for effect on plasma PAI-1 levels: graded infusions, healthy rabbits.
Source text: FIG. 12 is a graph of the mean plasma PAI-1 activity at baseline and after increasing doses of Ang II alone, Ang IV alone, saline, and Ang II in rabbits pretreated with amastatin. Error bars represent SEM.
as §3

The target in the next series is AT1 receptor. To be noted: well established property of the AT1 receptor; cited from earlier work.
[8] abbreviates: Ang II after pretreatment with amastatin.

pEC50, pKd, pKi: −log10 of the molar value.

As to `O[C@H](CS)[C@H](O)CS` (relative stereo) [DTT], the “reduction in total binding” value in series [1] (5 mM DTT, ^125 I-Ang II (0.27 nM)) is 50%.
A word on the pEC50: it is the EC50 on a negative log10 scale, so that one unit is a factor of ten. For the compound `CC[C@H](C)[C@H](NC(=O)[C@H](Cc1ccc(O)cc1)NC(=O)[C@@H](NC(=O)[C@H](CCCNC(=N)N)NC(=O)[C@@H](N)CC(=O)O)C(C)C)C(=O)N[C@@H](Cc1cnc[nH]1)C(=O)N1CCC[C@H]1C(=O)N[C@@H](Cc1ccccc1)C(=O)O` [Ang II, angiotensin II], the “effect on secretion of PAI-1 into media” value in the series on PAI-1 [2] (18 hour exposure, PAI-1 antigen ELISA) was “induce the secretion of PAI-1 in a dose-dependent manner”. Besides, the pEC50 in the series with PAI-1 [2] (PAI-1 antigen in conditioned media, 18 hour) was roughly 7.70. For the same compound, in the series on PAI-1 [2] (after reactivation of latent protein with guanidine hydrochloride), the “changes in PAI-1 activity” value is listed as “corresponding changes in PAI-1 activity”. Moreover, the “concentration at which increased levels of PAI-1 mRNA were observed” value with PAI-1 mRNA is given as 0.1 nM. Besides, the “time of peak PAI-1 mRNA after exposure” value in the series with PAI-1 mRNA (20 nM Ang II, serum-free DMEM) was 6 to 8 h. Further, the “increase in PAI-1 message” value in the series on PAI-1 mRNA (8 hour, serum-free media, normalized to β-actin) is given as roughly 4 fold. Also, the “effect on t-PA antigen or activity in conditioned media” value in the series with t-PA [3] was “not observed a similar increase in t-PA antigen or activity”. The “effect on PAI-1 secretion/response in normotensive volunteers” value with PAI-1 [4] (graded infusion 1.0, 3.0 and 10.0 ng/kg/min) is “increased in the subjects that received the Ang II infusions in a dose-dependent manner”. Further, the “increase in plasma PAI-1 compared with pretreatment” value in the series on PAI-1 [4] (hypertensive volunteers (N=6), 3 ng/kg/min over 45 min, p<0.04) is reported as 60%. Further, the “plasma PAI-1 level” value with PAI-1 [4] (normotensive volunteers (N=4), infusion graded 1.0, 3.0 and 10.0 ng/kg/min, from 14.7±5.3, mean±SEM, p<0.001 by ANOVA) turned out to be 33.5±10.6. Further, the “plasma t-PA levels” value in the series on t-PA [5] is recorded as “plasma t-PA levels do not increase”. In series [6], the “effect on mean blood pressure” value is “dose-dependent increase in mean blood pressure”. Also, the “effect on plasma PAI-1 levels” value in the series on PAI-1 [7] is “dose-dependent increase in plasma PAI-1 levels”.
`CC[C@H](C)[C@H](NC(=O)[C@H](Cc1ccc(O)cc1)NC(=O)[C@@H](N)C(C)C)C(=O)N[C@@H](Cc1cnc[nH]1)C(=O)N1CCC[C@H]1C(=O)N[C@@H](Cc1ccccc1)C(=O)O` [Ang IV, VAL-TYR-ILE-HIS-PRO-PHE]: the “effect on mean blood pressure” value in series [6] is on record as “stable mean BP”. The “effect on plasma PAI-1 levels” value in the series with PAI-1 [7] is recorded as “dose-dependent increase in plasma PAI-1 levels”.
In the case of `CCCCc1nc(Cl)c(CO)n1Cc1ccc(-c2ccccc2-c2nn[nH]n2)cc1` [Dup 753], the “effect on Ang II stimulation of PAI-1 mRNA levels” value in the series with PAI-1 mRNA is on record as “does not appear to be prevented”.
Take `CC(C)C[C@@H](N)[C@H](O)C(=O)N[C@H](C(=O)N[C@H](C(=O)N[C@@H](CC(=O)O)C(=O)O)C(C)C)C(C)C` [amastatin]: in series [6] (setting [8]), the “effect on mean blood pressure, Ang II after amastatin pretreatment” value was “expected increases in blood pressure”. The “PAI-1 response, Ang II after amastatin pretreatment” value in the series with PAI-1 [7] (setting [8]) was “PAI-1 response was reduced considerably”.
The pKi is the Ki on a negative log10 scale, so that one unit is a factor of ten. Regarding `CNCC(=O)N[C@@H](CCCN=C(N)N)C(=O)N[C@H](C(=O)N[C@@H](Cc1ccc(O)cc1)C(=O)N[C@H](C(=O)N[C@@H](Cc1cnc[nH]1)C(=O)N1CCC[C@H]1C(=O)N[C@@H](C)C(=O)O)C(C)C)C(C)C` [saralasin, (Sar^1,Val^5,Ala^8)-angiotensin], in the series on PAI-1 mRNA, the “effect on Ang II stimulation of PAI-1 mRNA levels” value was “does not appear to be prevented”. Besides, the pKi on AT1 receptor was 9.40.
In general, pKd refers to the negative decadic logarithm of the Kd, by convention in mol/L. Take ^125 I-Ang II: ^125 I labelled Ang II: the “character of binding to bovine aortic endothelial cells” value in series [1] (FIG. 2) was “saturable and specific manner”. For the same compound, in [1] (Scatchard transformation of specific binding, room temperature, read-out: apparent Kd), the pKd was roughly 8.70. This compound returned a Bmax in series [1] (Scatchard transformation, room temperature) of 105 fmol/10^6 cells. Further, the “time to binding equilibrium” value in [1] (room temperature) is reported as no more than 45 min.
